Test results as given in PMC6125496 (Antimicrobial Agents and Chemotherapy, 2018).
Converted amounts (≈) assume the structure as drawn. Like-named read-outs stand apart in the source and are kept apart here. Non-standard residues stand in square brackets, D forms with d. Residues, ends and D or L forms follow the SMILES beside them. Dab(3S-OH) = NC[C@H](O)[C@H](N)C(=O)O; Phe(2-F) = N[C@@H](Cc1ccccc1F)C(=O)O; ΔZArg = N=C(N)NCC/C=C(\N)C(=O)O; dOrn = NCCC[C@@H](N)C(=O)O; Dab = NCC[C@H](N)C(=O)O

Legend:
[1] = tested on: human renal proximal tubular epithelial cells (HRPTEpiC); experiment: Multiplexed HRPTEpiC cytotoxicity assay (cell viability, KIM-1, HSP27)
Method: The multiplexed cytotoxicity assay on human renal proximal tubule epithelial cells (HRPTEpiC) was conducted by Eurofins Panlabs (Eurofins Panlabs, Inc., St. Charles, MO) by using an image-based high content analysis (HCA) technique where cells were fixed and stained with nuclear dye to visualize nuclei and fluorescently labeled antibodies to detect drug-induced cellular injury and cellular stress arising from oxidative and chemical stress. Cells were seeded into 384-well plates and grown in RPMI 1640, 10% fetal bovine serum (FBS), 2 mM L-alanyl-L-glutamine, and 1 mM sodium pyruvate in a humidified atmosphere of 5% CO2 at 37°C. […] Compounds were serially diluted 3.16-fold and assayed over 10 concentrations in a final assay concentration of 0.5% dimethyl sulfoxide (DMSO) from 100 μM to 3.7 nM. At the same time, a time zero untreated cell plate was generated. After a 48-h incubation period, cells were fixed and stained with fluorescently labeled antibodies and nuclear dyed to allow visualization of nuclei, injured cells, and stressed cells. Injured cells were detected using a KIM-1 (kidney injury molecule 1) antibody. Stressed cells were detected using an anti-HSP27 (heat shock protein 27) antibody. Cell proliferation was measured by the signal intensity of the incorporated nuclear dye. The cell proliferation assay output was referred to as the relative cell count. To determine the cell proliferation endpoint, the cell proliferation data output was transformed to percentage of control (POC) using the following formula: POC = relative cell count in compound wells/relative cell count in vehicle wells × 100. The signal intensity of the incorporated cellular stress and injury measurements were normalized with the relative cell count from each well. Automated fluorescence microscopy was carried out using a Molecular Devices ImageXpress micro-imager, and images were collected with a 4× objective.

[2] = tested on: Klebsiella pneumoniae NCTC 13443; experiment: microbe, parasite or virus in culture
From the text: (§1) Reference strains are from the German Collection of Microorganisms and Cell Cultures (DSMZ), the American Type Culture Collection (ATCC), the National Collection of Type Cultures (NCTC), and the Medical and Molecular Microbiology, Faculty of Science and Medicine, University of Fribourg, Switzerland.

[3] = tested on: Citrobacter kozeri DSM 4595; experiment: microbe, parasite or virus in culture
From the text: as §1

[4] = tested on: Escherichia coli BAA-2471; experiment: microbe, parasite or virus in culture
From the text: as §1

[5] = tested on: Klebsiella pneumoniae ATCC BAA-1905; experiment: microbe, parasite or virus in culture
From the text: as §1

[6] = tested on: Ciprofloxacin-resistant E. coli (19); experiment: microbe, parasite or virus in culture
From the text: as §1

[7] = tested on: Ciprofloxacin-resistant K. pneumoniae (27); experiment: microbe, parasite or virus in culture
From the text: as §1

[8] = tested on: Escherichia coli ATCC 25922; experiment: microbe, parasite or virus in culture
From the text: as §1

[9] = tested on: Gentamicin-resistant K. pneumoniae (16); experiment: microbe, parasite or virus in culture
From the text: as §1

[10] = tested on: Stenotrophomonas maltophilia ATCC 13637; experiment: microbe, parasite or virus in culture
From the text: as §1

[11] = tested on: Serratia marcescens DSM 17174; experiment: microbe, parasite or virus in culture
From the text: as §1

Escherichia coli (101) = experiment: microbe, parasite or virus in culture; conditions: 101 clinical isolates
From the text: as §1

[12] = tested on: Klebsiella pneumoniae NCTC 13439; experiment: microbe, parasite or virus in culture
From the text: as §1

[13] = tested on: Klebsiella pneumoniae ATCC BAA-1904; experiment: microbe, parasite or virus in culture
From the text: as §1

[14] = tested on: Klebsiella pneumoniae ATCC 43816; experiment: microbe, parasite or virus in culture
From the text: as §1

[15] = tested on: Enterobacter cloacae (13); experiment: microbe, parasite or virus in culture
From the text: as §1

[16] = tested on: Enterococcus faecalis DSM 2570; experiment: microbe, parasite or virus in culture
From the text: as §1

[17] = tested on: Acinetobacter baumannii ATCC 19606; experiment: microbe, parasite or virus in culture
From the text: as §1

[18] = tested on: Citrobacter freundii DSM 30039; experiment: microbe, parasite or virus in culture
From the text: as §1

[19] = tested on: Citrobacter freundii (16); experiment: microbe, parasite or virus in culture
From the text: as §1

[20] = tested on: Enterobacter aerogenes DSM 30053; experiment: microbe, parasite or virus in culture
From the text: as §1

[21] = tested on: Staphylococcus epidermidis ATCC 12228; experiment: microbe, parasite or virus in culture
From the text: as §1

[22] = tested on: Klebsiella pneumoniae NCTC 13442; experiment: microbe, parasite or virus in culture
From the text: as §1

[23] = tested on: Pseudomonas aeruginosa DSM 1117; experiment: microbe, parasite or virus in culture
From the text: as §1

[24] = tested on: Staphylococcus aureus ATCC 29213; experiment: microbe, parasite or virus in culture
From the text: as §1

[25] = tested on: Enterococcus faecium DSM 20477; experiment: microbe, parasite or virus in culture
From the text: as §1

[26] = tested on: Enterobacter cloacae DSM 14563; experiment: microbe, parasite or virus in culture
From the text: as §1

[27] = tested on: Escherichia coli BAA-2469; experiment: microbe, parasite or virus in culture
From the text: as §1

[28] = tested on: Streptococcus pneumoniae DSM 2134; experiment: microbe, parasite or virus in culture
From the text: as §1

[29] = tested on: Klebsiella pneumoniae (56); experiment: microbe, parasite or virus in culture
From the text: as §1

Escherichia coli MIN = conditions: Ambler class A carbapenemase; KPC-3 + OXA-9
From the text: as §1

Citrobacter freundii MAU = conditions: Ambler class C carbapenem resistant; AmpC overexpressed + TEM-3
From the text: as §1

[30] = Ambler class B carbapenemase, NDM-1
[31] = 19 ciprofloxacin-resistant isolates
[32] = 27 ciprofloxacin-resistant isolates
[33] = 16 gentamicin-resistant isolates

N=C(N)NCC/C=C(\NC(=O)[C@H](CCCCN)NC(=O)[C@H](Cc1ccccc1F)NC(=O)[C@@H]1CCCN1C(=O)[C@@H](CCCN)NC(=O)CNC(=O)[C@H](CCN)NC(=O)[C@@H](NC(=O)[C@@H](N)CCCCN)[C@@H](O)CN)C(=O)O [NOSO-502] (H-K[Dab(3S-OH)][Dab]G[dOrn]P[Phe(2-F)]K[ΔZArg]-OH)
concentration inducing a significant (5-fold) increase of KIM-1 level ([1]; tested up to 100 μM): > 100 µM
MIC ([2]; NCTC 13443): 1 µg/mL (≈ 0.927 µM)
MIC ([3]; DSM 4595): 2 µg/mL (≈ 1.85 µM)
MIC ([4]; BAA-2471): 4 µg/mL (≈ 3.71 µM)
MIC ([5]; ATCC BAA-1905): 1 µg/mL (≈ 0.927 µM)
MIC range ([6]; Ciprofloxacin-resistant (19)): 2 to 32 µg/mL
MIC range ([7]; Ciprofloxacin-resistant (27)): 0.5 to 16 µg/mL
MIC ([8]; ATCC 25922): 4 µg/mL (≈ 3.71 µM)
MIC range ([9]; Gentamicin-resistant (16)): 0.5 to 2 µg/mL
MIC ([10]; ATCC 13637): 16 µg/mL (≈ 14.8 µM)
MIC ([11]; DSM 17174): 4 µg/mL (≈ 3.71 µM)
MIC 50% (Escherichia coli (101)): 4 µg/mL (≈ 3.71 µM)
MIC 90% (Escherichia coli (101)): 8 µg/mL (≈ 7.42 µM)
MIC ([12]; NCTC 13439): 1 µg/mL (≈ 0.927 µM)
MIC ([13]; ATCC BAA-1904): 2 µg/mL (≈ 1.85 µM)
MIC ([14]; ATCC 43816): 1 µg/mL (≈ 0.927 µM)
MIC range [15]; 13: 1 to 4 µg/mL
MIC ([16]; DSM 2570): >64 µg/mL
MIC ([17]; ATCC 19606): >64 µg/mL
MIC ([18]; DSM 30039): 2 µg/mL (≈ 1.85 µM)
MIC range [19]: 1 to 4 µg/mL
MIC ([20]; DSM 30053): 2 µg/mL (≈ 1.85 µM)
MIC ([21]; ATCC 12228): 0.25 µg/mL (≈ 0.232 µM)
MIC ([22]; NCTC 13442): 1 µg/mL (≈ 0.927 µM)
MIC ([23]; DSM 1117): >64 µg/mL
MIC ([24]; ATCC 29213): 1 µg/mL (≈ 0.927 µM)
MIC ([25]; DSM 20477): 64 µg/mL (≈ 59.4 µM)
MIC ([26]; DSM 14563): 2 µg/mL (≈ 1.85 µM)
MIC ([27]; BAA-2469): 2 µg/mL (≈ 1.85 µM)
MIC ([28]; DSM 2134): 64 µg/mL (≈ 59.4 µM)
MIC range [29]; 56: 0.5 to 16 µg/mL
MIC (Escherichia coli MIN): 4 µg/mL
MIC (Citrobacter freundii MAU): 1 µg/mL

polymyxin B [PMB]
IC50 ([1]; read-out: cytotoxicity IC50 (cell viability), 48-h incubation): 11.8 µM
concentration inducing a significant (5-fold) increase of HSP27 level ([1]; tested up to 100 μM): 9.7 µM
concentration inducing a significant (5-fold) increase of KIM-1 level ([1]; tested up to 100 μM): 12.1 µM
MIC [2, 30]: 0.5 µg/mL
MIC ([3]; reference strain): 0.25 µg/mL
MIC [4, 30]: 0.25 µg/mL
MIC ([5]; Ambler class A carbapenemase, KPC-2): 0.5 µg/mL
MIC 50% [6, 31]: 0.5 µg/mL
MIC 90% [6, 31]: 1 µg/mL
MIC range [6, 31]: 0.5 to 32 µg/mL
MIC 50% [7, 32]: 0.5 µg/mL
MIC 90% [7, 32]: 1 µg/mL
MIC ([8]; reference strain): 0.5 µg/mL
MIC 50% [9, 33]: 0.5 µg/mL
MIC 90% [9, 33]: 1 µg/mL
MIC range [9, 33]: 0.5 to 1 µg/mL
MIC ([10]; reference strain): 1 µg/mL
MIC ([11]; reference strain): >32 µg/mL
MIC 50% (Escherichia coli (101)): 0.5 µg/mL
MIC 90% (Escherichia coli (101)): 1 µg/mL
MIC ([12]; Ambler class B carbapenemase, VIM-1): 0.5 µg/mL
MIC ([13]; Ambler class A carbapenemase, KPC-3): 0.5 µg/mL
MIC ([14]; reference strain): 1 µg/mL
MIC 50% ([15]; 13 clinical isolates): 0.5 µg/mL
MIC 90% ([15]; 13 clinical isolates): 8 µg/mL
MIC range ([15]; 13 clinical isolates): 0.5 to 16 µg/mL
MIC ([16]; reference strain): >32 µg/mL
MIC ([17]; reference strain): 0.5 µg/mL
MIC ([18]; reference strain): 0.5 µg/mL
MIC 50% ([19]; 16 clinical isolates): 0.5 µg/mL
MIC 90% ([19]; 16 clinical isolates): 1 µg/mL
MIC range ([19]; 16 clinical isolates): 0.25 to 1 µg/mL
MIC ([20]; reference strain): 0.5 µg/mL
MIC ([21]; reference strain): 16 µg/mL
MIC ([22]; Ambler class D carbapenemase, OXA-48): 0.5 µg/mL
MIC ([23]; reference strain): 1 µg/mL
MIC ([24]; reference strain): 16 µg/mL
MIC ([25]; reference strain): >32 µg/mL
MIC ([26]; reference strain): 1 µg/mL
MIC [27, 30]: 0.25 µg/mL
MIC ([28]; reference strain): >32 µg/mL
MIC 50% ([29]; 56 clinical isolates): 0.5 µg/mL
MIC 90% ([29]; 56 clinical isolates): 4 µg/mL
MIC range ([29]; 56 clinical isolates): 0.25 to 32 µg/mL
MIC (Escherichia coli MIN): 0.5 µg/mL
MIC (Citrobacter freundii MAU): 0.5 µg/mL
